Several values for one entry are separate records, joined by “and”; a condition that tells them apart may be missing. Equal entries are not always repeated.

Consider four compounds from US4349544A, “Method for increasing the milk let down in mammals” (Ceskoslovenska akademie ved, priority 1976, dated 1982).

In data set [1] the test system is uterine horn. Briefly: In situ uterine horn contractions in estrogenized anesthetized female rats. The format is in vivo, rat. The note with it: for A = amplitude of contractions as a % of maximal contraction induced by a tetanic dose of 10 mcg/kg oxytocin: equipotent i.v. doses (10 mcg/kg dCOMOT, Me-OT; 1 mcg/kg dOT, OT), n=5; for A = amplitude of contractions as a % of maximal contraction induced by a tetanic dose of 10 mcg/kg oxytocin / C = duration of the response: mean, SEM on next line; for D = the presence of tetany in % of the animal group (single maximal contraction lasting more than 10 min.) / B = contraction frequency per 10 min. in % / C = duration of the response: equipotent i.v. doses (10 or 1 mcg/kg); for B = contraction frequency per 10 min. in %: mean ± SEM. As for the experimental part:
250-300 g body wt female rats (n=5 for each substance) were pre-treated for 3 days with 50 mcg di-ethylstilbestrol and 25 mg progesterone injected once daily i.m. in order to fully "estrogenize" the animals and have them all in the same functional state of myometrial reactivity. They were then anesthetized with urethane and prepared for in situ measurements of uterine horn contractions using Grass force-displacement treansducers and polygraph recording.

Data set [2] has as its system lactational activity. Briefly: Biological activity E: lactational activity in vivo. An excerpt: | E = lactational activity in vivo
The test system of data set [3] is pregnant cows. Briefly: Induction of labor in pregnant Czech red-spotted cows. The format is in vivo, cow. The note with it: for Duration of Labor: individual animals. As for the experimental part: These experiments were carried out on 13 pregnant `Czech red-spotted` cows ranging from para I to para V. Average pregnancy in this breed is 290 days in duration.
Nine of the animals were 278-290 days after insemination but actual active labor had not yet begun. These animals received no other medication (Table 7).
Four of the animals were estimated to be near to term (cf. Table 4). 48 hours before the actual experiment they received 20 mg dexamethasone i.m. in an attempt to prepare the uterine cervix for active labor. In this group, in addition to close clinical follow-up, measurements were also made of: body temp., hemoglobin (Hb), glucose, total protein, inorganic P, Ca and Mg concentrations in the blood, both in the cow during the experiment and in the calf after birth, all by standard methods.
The standard i.v. (jugular) injection dosage of dCOMOT was 5 mg. In those cases in which labor lasted longer than 6 hours (cf. Results) in second injection was given.
The first group of 9 cows was managed under field conditions--in the barns of local farms. The four animals under more intensive study were kept in stalls set aside in a research building for one week prior to the onset of the experiment and for 3 weeks following delivery for further postnatal observations.

The subject of data set [4] is antidiuretic in the rat. The data set can be described thus: Biological activity F: antidiuretic in the rat. The note with it: in vivo. The text has this: | F = antidiuretic in the rat.
Data set [5] concerns in situ rat uterus. The data set can be described thus: Biological activity B: in situ rat uterus. The note with it: in vivo. An excerpt:
| B = in situ rat uterus,

Data set [6] relates to isolated rat uterus. The data set can be described thus: Biological activity A: isolated rat uterus. The class given is cell-based. An excerpt: | A = isolated rat uterus,
Data set [7] can be described thus: Partition coefficient between 2-butanol and 0.05% acetic acid. The format is physicochemical. The note with it: 2-butanol / 0.05% acetic acid. An excerpt:
K = partition coefficient between 2butanol and 0.05% acetic

The test system of data set [8] is sows affected with hypogalactia or agalactia. The format is in vivo, sow. The note with it: for Litter size (Mean ± s.d.) 7 days after treatment / Litter size (Mean ± s.d.) at day of treatment: dCOMOT 0.6 mg i.v. or i.m., oxytocin 30-50 I.U.; for sows failing to eject milk on the day after treatment: day after 1st treatment; for Mean piglet weight per litter at day of treatment / Litter size (Mean ± s.d.) at day of treatment: day of treatment (baseline); for side effects after treatment: in vivo.

In data set [9] the test system is healthy lactating sows. The data set can be described thus: Milk-let-down effect in healthy lactating sows. The format is in vivo, sow. On the procedure:
The milk-let-down effect of 1-desamino-1-monocarba-([…](OMe))-oxytocin (hereinafter noted as dCOMOT) was tested in healthy lactating sows. The milk-let-down effect of 0.6 mg of dCOMOT injected intravenously lasted for from 4 to 9 hours.

Data set [10] has as its system isolated rat mammary gland. Briefly: Biological activity D: isolated rat mammary gland. The class given is cell-based. An excerpt: | D = isolated rat mammary gland,
The conditions of data set [11]: sow, as in all other mammals; cited from earlier work.
Data set [12] relates to uterus of gilts. The format is in vivo, gilt. The note with it: i.v., OT 1 to 5 IU, dCOMOT 0.2 to 1.0 mg. As for the experimental part: Four gilts were used. The experiments stated about 24 hours after onset of their second or third estrus. Their cycle duration was in the range 19-22 days. They were anesthetized by i.v. administration of about 15 mg/kg Na thionembutal (in 5% (w/v) solution)--additional doses were required during the experiment. The uterus was exposed through a midline abdominal incision. A recording balloon-tipped catheter was inserted into each uterine horn through a small incision about 10 cm from the uterine body (Clay-Adams catheters, PE 90-0.86 mm i.d.×1.27 mm o.d., with a micro-balloon sealed over the tip with a double tie of 0000 silk suture). The recording system was filled with saline and each catheter was affixed to the uterine wall with 000 silk suture to prevent motion of the balloon in the lumen. The catheters exited through the mid-abdominal incision and were connected to P-23AC pressure transducers, thence to 7PL DC preamplifiers. When we were satisfied that the recording system was functioning the abdominal incision was closed about the catheters. […] Unfortunately there was not enough material for a full scale dose-response investigation.

Data set [13] relates to myometrium. The settings on record: relative to oxytocin; cited from earlier work.

Turning to 1-deamino-OT [d OT], in data set [1], the “A = amplitude of contractions as a % of maximal contraction induced by a tetanic dose of 10 mcg/kg oxytocin” value was found to be 92%, the “D = the presence of tetany in % of the animal group (single maximal contraction lasting more than 10 min.)” value was determined as 60%, the “B = contraction frequency per 10 min. in %” value is 65 ± 6.2% and the “C = duration of the response” value is 46 min.

Consider “1-desamino-1-monocarba-(2-Tyr(OMe))-oxytocin [Ic]”, for which, in data set [2], the “Biological activities E = lactational activity in vivo” value is reported as 35 IU/mg. In addition, the health of calves entry in data set [3] (Group I) is listed as “All the calves were healthy”. The “Mean duration of labor from the dCOMOT injection” value in data set [3] (Group I, 9 non-pretreated cows, mean ± SEM) turned out to be 14.25 ± 5.1 h. Besides, the “uterine tetany during induced labor” value in data set [3] (Group I, non-pretreated cows) is reported as “no evidence of uterine tetany whatsoever”. The response following injection result in data set [3] (Group I, non-pretreated cows, all cases) is “onset of regular uterinne contractions and increased tension in the udder”. The “Duration of Labor” value in data set [3] (Group I, non-pretreated cows, dCOMOT i.v.) is 26 h and 34 h and 22.5 h and 6 h and 24.5 h and 10 h and 1.5 h and 7 h and 15 h. Also, the health of calves entry in data set [3] (Group II) is listed as “all calves were healthy”. Moreover, the “mean duration of labor” value in data set [3] (Group II, 4 dexamethasone pretreated cows) was found to be 4.3 ± 2.1 h. Besides, in [3] (Group II, cows pretreated with 20 mg dexamethasone i.m. 48 hours before, listed as dCOMOT), the “Duration of Labor” value is 0.7 h and 8.2 h and 8.8 h and 8.6 h. In addition, the “uterine tetany during induced labor” value in data set [3] (Group II, dexamethasone pretreated cows) is “In no cases was uterine tetany observed”. Also, the “start of active labor after injection” value in data set [3] (Group II, dexamethasone pretreated cows, all cases) is given as “within minutes”. In data set [3] (Group II, dexamethasone pretreated cows, individual calves), the “Progeny Serum” value is on record as 7.4. In addition, the “Biological activities F = antidiuretic in the rat” value in data set [4] is given as 0.9 IU/mg. For the same compound, the “Biological activities B = in situ rat uterus” value in [5] is recorded as 40 IU/mg. Also, the “Biological activities A = isolated rat uterus” value in data set [6] worked out at 10 IU/mg. For the same compound, the “K = partition coefficient” value in data set [7] was determined as 3.15. For the same compound, the “piglet weight gain during the observation period versus oxytocin group” value in data set [8] (7 day observation period) is “gained more weight”. Besides, in [8], the “Mean piglet weight per litter 7 days after treatment” value is listed as 2.64 ± 0.62 kg, the “Litter size (Mean ± s.d.) 7 days after treatment” value was found to be 8.92 ± 1.85, the “sows failing to eject milk on the day after treatment” value is reported as “None” and the “Mean piglet weight per litter at day of treatment” value is listed as 1.44 ± 0.37 kg. Also, in data set [8], the “Litter size (Mean ± s.d.) at day of treatment” value is listed as 10.16 ± 1.65 and the “side effects after treatment” value is on record as “No side effects were observed”. Also, in data set [1], the “A = amplitude of contractions as a % of maximal contraction induced by a tetanic dose of 10 mcg/kg oxytocin” value turned out to be 65%, the “D = the presence of tetany in % of the animal group (single maximal contraction lasting more than 10 min.)” value is reported as “none”, the “B = contraction frequency per 10 min. in %” value is given as 60 ± 5.3% and the “C = duration of the response” value amounted to 185 min. Also, in data set [9] (0.6 mg intravenously, healthy lactating sows), the “duration of secondary oscillation in intramammary pressure” value is “at least 4 hours”. Further, the “milk-let-down response after intramuscular injection” value in [9] (intramuscular injection, compared with i.v.) is “approximately the same response”. Moreover, the “Biological activities D = isolated rat mammary gland” value in data set [10] is 67 IU/mg.

With `CC[C@H](C)[C@@H]1NC(=O)[C@H](Cc2ccc(O)cc2)NC(=O)[C@@H](N)CSSC[C@@H](C(=O)N2CCC[C@H]2C(=O)N[C@@H](CC(C)C)C(=O)NCC(N)=O)NC(=O)[C@H](CC(N)=O)NC(=O)[C@H](CCC(N)=O)NC1=O` [oxytocin, reference compound], the “biochemical half-life of injected hormone” value in [11] was “only a few minutes”. Also, in [8], the “Mean piglet weight per litter 7 days after treatment” value came out at 2.28 ± 0.44 kg, the “Litter size (Mean ± s.d.) 7 days after treatment” value was determined as 9.10 ± 2.10, the “sows failing to eject milk on the day after treatment” value is “Four out of 17” and the “Mean piglet weight per litter at day of treatment” value worked out at 1.40 ± 0.22 kg. In addition, in [8], the “Litter size (Mean ± s.d.) at day of treatment” value is 10.00 ± 1.95 and the “side effects after treatment” value was “No side effects were observed”. In addition, in data set [1], the “A = amplitude of contractions as a % of maximal contraction induced by a tetanic dose of 10 mcg/kg oxytocin” value came to 90%, the “D = the presence of tetany in % of the animal group (single maximal contraction lasting more than 10 min.)” value came to 60%, the “B = contraction frequency per 10 min. in %” value is 43 ± 3.2% and the “C = duration of the response” value was found to be 10.4 min. For the same compound, the “contraction rate after injection (baseline 6/10 min)” value in data set [12] is reported as 8/10. Moreover, in [12] (anesthetized gilts), the response duration entry is “approximately 10 min”. Also, the “duration of rapid increase of the intramammary pressure” value in [9] (5-10 I.U. intravenous, healthy lactating sows) lay in the range of 5 to 10 min.

As for [2-Tyr(OMe)]-OT [Me--OT], in [13], the “contractile activity on the myometrium in comparison with the natural hormone” value is recorded as “one tenth” and the “vasoconstrictor activity in the myometrium in comparison with the natural hormone” value was “one hundredth”. For the same compound, in data set [1], the “A = amplitude of contractions as a % of maximal contraction induced by a tetanic dose of 10 mcg/kg oxytocin” value was 68%, the “D = the presence of tetany in % of the animal group (single maximal contraction lasting more than 10 min.)” value was “none”, the “B = contraction frequency per 10 min. in %” value is listed as 42 ± 5.4% and the “C = duration of the response” value was 20.6 min.
